Laboratory results published in the Deep4Chem optical property database.
One block for each compound: values may come before it.

Experiment: solvent given as SMILES
[1] = in O=P(c1ccccc1)(c1ccccc1)c1ccccc1Oc1ccccc1P(=O)(c1ccccc1)c1ccccc1

SMILES: Cc1cc(-c2ccc(-c3ccccc3)cc2)nc(-c2ccc(-n3c4ccccc4c4ccccc43)cc2)n1
fluorescence lifetime (in C1CCOC1): 3.36 ns
fluorescence lifetime (in CN(C)C=O): 12.2 ns
fluorescence lifetime (in Cc1ccccc1): 1.15 ns
fluorescence lifetime (in ClC(Cl)Cl): 3.19 ns

SMILES: Cc1ccccc1[B-]1(c2ccccc2C)n2nc(C(F)(F)F)cc2-c2c3ccccc3cc[n+]21
fluorescence lifetime (in C1CCCCC1): 0.525 ns
fluorescence lifetime (in Cc1ccccc1): 0.425 ns
fluorescence lifetime (in ClCCl): 0.938 ns

SMILES: c1cc2c([nH]c3c4[nH]c5sccc5c4c4nsnc4c23)s1
fluorescence lifetime (in C1CCOC1): 16.2 ns
fluorescence lifetime (in CCOC(C)=O): 16.5 ns
fluorescence lifetime (in CN(C)C=O): 16 ns
fluorescence lifetime (in Cc1ccccc1): 13.8 ns
fluorescence lifetime (in ClCCl): 13.2 ns

SMILES: N#Cc1ccc(-c2ccc3c(c2)c2cc(-c4ccc(C#N)cc4)ccc2c2c3nc(-c3ccc(-c4ccc(N(c5ccccc5)c5ccccc5)cc4)cc3)n2-c2ccccc2)cc1
fluorescence lifetime (in C1CCOC1): 1.51 ns
fluorescence lifetime (in CC#N): 2.86 ns
fluorescence lifetime (in CCCCCC): 1.04 ns
fluorescence lifetime (in CCOCC): 1.29 ns

SMILES: Cc1cc(C)c(B(c2ccccc2N2c3ccccc3Oc3ccccc32)c2c(C)cc(C)cc2C)c(C)c1
fluorescence lifetime (in Cc1ccccc1): 62 ns

SMILES: O=Cc1ccc2ccc3cccc4ccc1c2c34
fluorescence lifetime (in C1CCOC1): 127 ns
fluorescence lifetime (in CC#N): 8.76 ns
fluorescence lifetime (in CCCCCC): 7.43 ns
fluorescence lifetime (in CCO): 6.44 ns
fluorescence lifetime (in CN(C)C=O): 64.8 ns
fluorescence lifetime (in CO): 0.953 ns
fluorescence lifetime (in Cc1ccccc1): 15.3 ns
fluorescence lifetime (in ClCCl): 3.45 ns

SMILES: Cc1ccc(C)cc1
fluorescence lifetime (in C1CCCCC1): 47 ns

SMILES: N#Cc1c(-c2ccc(N(c3ccccc3)c3ccccc3)cc2)c(C#N)c(-c2ccc(N(c3ccccc3)c3ccccc3)cc2)c(C#N)c1-c1ccc(N(c2ccccc2)c2ccccc2)cc1
fluorescence lifetime [1]: 6.21 ns

SMILES: c1ccc(N2c3ccccc3Sc3cc(-c4cccc5nc6ccccc6cc45)ccc32)cc1
fluorescence lifetime (in CC#N): 7.58 ns
fluorescence lifetime (in CCCCCC): 2.05 ns
fluorescence lifetime (in CCOCC): 3.96 ns
fluorescence lifetime (in ClCCl): 3.32 ns

SMILES: c1ccc(-c2nc(-c3ccccc3)nc(-c3ccc(-n4c5ccccc5c5cc(-n6c7ccccc7c7ccccc76)ccc54)cc3)n2)cc1
fluorescence lifetime (in Cc1ccccc1): 6.5 ns

SMILES: F[B-]1(F)OC(c2ccc(C(F)(F)F)cc2)=Cc2cc(Cl)nc[n+]21
fluorescence lifetime (in C1CCOC1): 0.13 ns
fluorescence lifetime (in Cc1ccccc1): 0.21 ns

SMILES: CN(C)c1ccc(/C=C/C=C/c2ccc(C#N)cc2)cc1
fluorescence lifetime (in C1CCOC1): 0.35 ns
fluorescence lifetime (in CC#N): 0.56 ns
fluorescence lifetime (in CCCCCC): 0.28 ns
fluorescence lifetime (in CCCCOCCCC): 0.28 ns
fluorescence lifetime (in CCO): 0.51 ns
fluorescence lifetime (in CCOCC): 0.32 ns

SMILES: Cc1c(-c2nc(-c3ccccc3)nc(-c3ccccc3)n2)ccc(-n2c3ccccc3c3cc4c(cc32)C2c3ccccc3C4c3ccccc32)c1C
fluorescence lifetime [1]: 10 ns

Other lines, results leading:

fluorescence lifetime (in C1CCCCC1): 62 ns
SMILES: CCCCCCCC[Si](C)(C)c1cccc2ccccc12

fluorescence lifetime (in O): 0.59 ns
SMILES: [NH3+]c1cc([NH3+])cc(-c2nc3ccccc3s2)c1

fluorescence lifetime (in O): 3.43 ns
SMILES: Cn1ccc(-n2cncn2)nc1=O

fluorescence lifetime (in CCO): 1.8 ns
fluorescence lifetime (in ClCCl): 5.8 ns
SMILES: N#Cc1ncc(-c2c3ccccc3c(-c3cnc(C#N)nc3)c3ccccc23)cn1

fluorescence lifetime (in CC#N): 3.2 ns
SMILES: N#C/C(=C\c1ccc(C#N)cc1)c1nc(-c2ccccc2)c(-c2ccccc2)s1

fluorescence lifetime (in ClCCl): 2.35 ns
SMILES: CC(C)(C)c1ccc(-c2c3c(c(-c4ccc(C(C)(C)C)cc4)c4cc5ccccc5cc24)Cc2c(c(-c4ccc(C(C)(C)C)cc4)c4cc5ccccc5cc4c2-c2ccc(C(C)(C)C)cc2)C3)cc1

fluorescence lifetime (in CC#N): 2.9 ns
SMILES: COc1ccc(-c2nc(/C(C#N)=C/c3ccc(C#N)cc3)sc2-c2ccc(OC)cc2)cc1

fluorescence lifetime (in ClCCl): 2.25 ns
SMILES: COC(=O)c1cc(=O)n(C)c2cc(-c3cc4c5c(c3)CCCN5CCC4)sc12

fluorescence lifetime (in C1CCCCC1): 4.7 ns
fluorescence lifetime (in CCOC(C)=O): 4.1 ns
fluorescence lifetime (in CO): 5.1 ns
SMILES: c1ccc2cc(-n3cnc4ccccc43)ccc2c1

fluorescence lifetime (in C1CCCCC1): 15 ns
SMILES: Oc1cccc2ccccc12

fluorescence lifetime (in CC#N): 4.5 ns
SMILES: O=c1oc2cc(S(=O)(=O)O)c3ccccc3c2nc1-c1ccccc1

fluorescence lifetime (in C1CCCCC1): 2.4 ns
fluorescence lifetime (in CC#N): 5.1 ns
fluorescence lifetime (in CCCCCC): 1.9 ns
fluorescence lifetime (in CCO): 6.2 ns
fluorescence lifetime (in O): 0.045 ns
fluorescence lifetime (in OCC(F)(F)F): 0.11 ns
SMILES: N#Cc1cccc(N)c1

fluorescence lifetime (in ClCCl): 3.23 ns
SMILES: CCCCC(CC)Cn1c2cc(-c3ccc(N(c4ccccc4)c4ccccc4)cc3)c(C#N)cc2c2cc(C#N)c(-c3ccc(N(c4ccccc4)c4ccccc4)cc3)cc21 (centres undefined)

fluorescence lifetime (in O): 13.5 ns
SMILES: [NH3+]c1ccc2ccc([O-])cc2c1

fluorescence lifetime (in C1CCCCC1): 0.4 ns
fluorescence lifetime (in CC#N): 17.8 ns
fluorescence lifetime (in CCO): 1.9 ns
fluorescence lifetime (in c1ccccc1): 2.8 ns
SMILES: O=C1c2ccccc2-c2ccccc21

fluorescence lifetime (in C1CCCCC1): 3.5 ns
SMILES: CCCCc1cc2cccc[n+]2[b-]2ccc(-c3cc[b-]4c(c3)c(CCCC)cc3cccc[n+]43)cc21

fluorescence lifetime (in c1cc(-c2cccc(-n3c4ccccc4c4ccccc43)c2)cc(-n2c3ccccc3c3ccccc32)c1): 15 ns
SMILES: CC(C)c1cc(C(C)C)c(B2c3cc(-n4c5ccccc5c5ccccc54)ccc3N(c3ccccc3)c3ccc(-n4c5ccccc5c5ccccc54)cc32)c(C(C)C)c1
